Measurements: patent US20170198292A1, “Methods and Compositions for Modulating Lung Cancer Tumor Initiating Cells (TIC), and Oxytocin Receptor (OXTR) Modulatory Agents for Use in Practicing the Same” (The Board of Trustees of the Leland Stanford Junior …, priority 2014, published 2017)

Key:
Type in all cases: cell-based, human
[1] = system: tumor spheres derived from primary SQCC cells; test: Sphere-forming assay, primary SQCC cells; conditions: at 5 μM; three days
Description: All gene expression and survival data were obtained from publicly-available resources: NCI TCGA and NCBI GEO. Human lung cancer tissue samples were purchased from US Biomax. Cell imaging was acquired using a confocal laser scanning microscope at the Stanford Fluorescence Microscopy Core. FACS was done at the Stanford FACS core facility. All sphere-forming assays and mouse xenograft model were performed at the Stanford Transgenic, Knockout and Tumor Model Center. qRT-PCR and sequencing was performed at Stanford Protein and Nucleic Acid Facility. • A. Text mining of lung TIC associated literature. PubMed literatures were queried on Apr. 13, 2015, using the search term, (“Neoplastic Stem Cells”[majr] OR “tumor-propagating cells”[All Fields]) AND “lung cancer”[All Fields]. […] Words with a prefix “CD” followed by digits were extracted from the title and abstract of each article. Resulted terms were manually examined. […] The number of unique occurrence of each term is counted in titles and abstracts. […] Meta-analysis of correlations were performed using R package meta, where fixed and random effects estimates were calculated and inverse variance weighting was used for pooling. […] Quantitative IF imaging signal of human lung tissue samples were measured using the Bioquant image analysis software in the Nikon 8000 microscope and Leica DMI 6000B. • E. Flow Cytometry. […]

[2] = system: regular H226 and H520 cells; test: Proliferation of regular cancer cells; conditions: for cell proliferation of regular H226 and H520 cells: 3-day treatment
Description: All gene expression and survival data were obtained from publicly-available resources: NCI TCGA and NCBI GEO. Human lung cancer tissue samples were purchased from US Biomax. Cell imaging was acquired using a confocal laser scanning microscope at the Stanford Fluorescence Microscopy Core. FACS was done at the Stanford FACS core facility. All sphere-forming assays and mouse xenograft model were performed at the Stanford Transgenic, Knockout and Tumor Model Center. qRT-PCR and sequencing was performed at Stanford Protein and Nucleic Acid Facility. • A. Text mining of lung TIC associated literature. PubMed literatures were queried on Apr. 13, 2015, using the search term, (“Neoplastic Stem Cells”[majr] OR “tumor-propagating cells”[All Fields]) AND “lung cancer”[All Fields]. […] Words with a prefix “CD” followed by digits were extracted from the title and abstract of each article. Resulted terms were manually examined. Immune cell CD markers were excluded from the list. CD marker with positive sign, such as CD133+, was treated as different from CD133 or CD133−. The number of unique occurrence of each term is counted in titles and abstracts. Terms occurred in at least two different articles were selected for ranking by its occurrence frequency. • B. Primary Tumor Cell Preparation. SQCC samples were collected from patients according to protocols approved by the Stanford IRB board. Samples were washed, dissociated, and incubated in DNase and collagenase/dispase. After incubation, cell clusters and red blood cells were removed. The single cells were resuspended and prepared for cell culture and staining. • C. Microarray datasets. The TOGA lung cancer gene expression datasets were downloaded from the TOGA data portal on September 2012. […] Meta-analysis of correlations were performed using R package meta, where fixed and random effects estimates were calculated and inverse variance weighting was used for pooling. […] Quantitative IF imaging signal of human lung tissue samples were measured using the Bioquant image analysis software in the Nikon 8000 microscope and Leica DMI 6000B. • E. Flow Cytometry. […]

[3] = system: tumor spheres of H226 and H520 cells; test: Sphere-forming assay (tumor spheres / TIC growth)
Description: All gene expression and survival data were obtained from publicly-available resources: NCI TCGA and NCBI GEO. Human lung cancer tissue samples were purchased from US Biomax. Cell imaging was acquired using a confocal laser scanning microscope at the Stanford Fluorescence Microscopy Core. FACS was done at the Stanford FACS core facility. All sphere-forming assays and mouse xenograft model were performed at the Stanford Transgenic, Knockout and Tumor Model Center. qRT-PCR and sequencing was performed at Stanford Protein and Nucleic Acid Facility. • A. Text mining of lung TIC associated literature. PubMed literatures were queried on Apr. 13, 2015, using the search term, (“Neoplastic Stem Cells”[majr] OR “tumor-propagating cells”[All Fields]) AND “lung cancer”[All Fields]. […] Words with a prefix “CD” followed by digits were extracted from the title and abstract of each article. Resulted terms were manually examined. Immune cell CD markers were excluded from the list. CD marker with positive sign, such as CD133+, was treated as different from CD133 or CD133−. The number of unique occurrence of each term is counted in titles and abstracts. Terms occurred in at least two different articles were selected for ranking by its occurrence frequency. • B. Primary Tumor Cell Preparation. SQCC samples were collected from patients according to protocols approved by the Stanford IRB board. Samples were washed, dissociated, and incubated in DNase and collagenase/dispase. After incubation, cell clusters and red blood cells were removed. The single cells were resuspended and prepared for cell culture and staining. • C. Microarray datasets. The TOGA lung cancer gene expression datasets were downloaded from the TOGA data portal on September 2012. No significant changes in available sample size were found during a recent check. These datasets were selected based on two criteria: explicit pathological diagnosis of SQCC and associated with an actual publication. Pearson or Spearman correlation analysis was used for the association study, depending on whether the distribution of the gene expression data is parametric or non-parametric. Multiple hypothesis testing was corrected using false discovery rates to select associations with a q value less than 0.1. Meta-analysis of correlations were performed using R package meta, where fixed and random effects estimates were calculated and inverse variance weighting was used for pooling. Survival data was extracted from all the datasets whenever they were available. Proportional hazards regression analysis was performed with the gene expression of OXTR and CD133 as covariates. Proportional hazard hypothesis was test based on weighted residuals. • D. Cell Culture and Imaging. H226, H520, HCC827, H522 and NL20 cell lines were purchased from ATCC and cultured in recommended cell medium for bulk cancer cell growth. HCC95 and H157 were from Dr. Sage's laboratory. APC conjugated mouse anti-CD133 Ab (BioLegend 14208), goat anti-OXTR Ab (Life Technologies ab87312) with anti-goat Alexa488 (Life Technologies A11055), rabbit anti-CD44 (Santa Cruz Biotech sc-7946) with anti-rabbit Alexa594 (Life Technologies A21207) and rabbit anti-OXT with anti-rabbit Alexa594 were used to stain CD133, OXTR, CD44 and OXT respectively in human tissue samples and cell lines for immunofluorescence (IF) imaging. Goat F(ab′)2 IgG (Life Technologies 11301C) and isotype control for rabbit primary Ab (Life Technology 08-6199) were used as isotype control of OXTR Ab and CD133 Ab. Quantitative IF imaging signal of human lung tissue samples were measured using the Bioquant image analysis software in the Nikon 8000 microscope and Leica DMI 6000B. • E. Flow Cytometry. Cells were stained with CD133, CD44 or OXTR Ab separately for single channel counting, and stained with CD133 and OXTR Ab for double channel counting and sorting. Cells were also stained for secondary Ab alone for subtraction of non-specific binding. […]

H226 and H520 cells = test: Colony formation; conditions: statistically significant at 0.5 μM, 5 μM and 10 μM
Source text: To determine whether the expression of OXTR is associated with the growth of regular cancer cells and TICs, we treated regular cancer cells and tumor spheres of SQCC cell lines with an OXTR specific inhibitor (Manning et al.,“Oxytocin and vasopressin agonists and antagonists as research tools and potential therapeutics,” Journal of neuroendocrinology (2012) 24: 609-628), L-368,899 (L3) to suppress its activity, or its natural ligand oxytocin (OXT) to induce its activity.

ERK1/2 = ERK1/2 phosphorylation, western blot

Compound	sphere growth of tumor spheres derived from primary SQCC cells [1]	cell proliferation of regular H226 and H520 cells [2]	tumor sphere numbers ([3]; H226 and H520 cells, after 3 days of treatment, statistically significant at 5 μM and 10 μM)	colony formation of H226 and H520 cells (H226 and H520 cells)	tumor sphere size vs solvent control ([3]; H226 and H520 tumor spheres treated for three days)	tumor sphere growth ([3]; both cell lines (H226, H520), statistically significant at as low as 10 nM)	phosphorylation of ERK1/2 in regular H226 and H520 cells (ERK1/2; 100 nM for two days, compared to solvent control)	phosphorylation of ERK1/2 in TICs (ERK1/2; 100 nM for two days, compared to solvent control, tumor spheres of H226 and H520)	proliferation in regular cancer cells ([2]; H226 and H520 cells)	rescue of the inhibitory effect by increasing dose of OXT ([3]; H226 and H520)	TIC growth ([3]; H226 and H520 spheres)	OXT induced increase of TIC growth ([3]; both H226 and H520 cells, co-treatment with OXT)	OXT induced phosphorylation of ERK1/2 (ERK1/2; CCs and TICs of H226 and H520 cell lines, co-treatment with OXT)
Cc1ccccc1N1CCN(S(=O)(=O)C[C@]23CC[C@H](C[C@@H]2NC(=O)[C@@H](N)CCS(C)(=O)=O)C3(C)C)CC1 [L3, (S)-2-amino-N-((1S,2S,4R)-7,7-dimethyl-1-((4-o-tolylpiperazin-1-lsulfonyl)methyl)bicyclo[2.2.1]heptan-2-yl)-4-(methylsulfonyl)butanamide]	significantly reduced the sphere growth	neither L3 nor OXT affected the cell proliferation	dose-dependent decrease	reduced the colony formation									
CC[C@H](C)[C@@H]1NC(=O)[C@H](Cc2ccc(O)cc2)NC(=O)[C@@H](N)CSSC[C@@H](C(=O)N2CCC[C@H]2C(=O)N[C@@H](CC(C)C)C(=O)NCC(N)=O)NC(=O)[C@H](CC(N)=O)NC(=O)[C@H](CCC(N)=O)NC1=O [OXT, oxytocin]		neither L3 nor OXT affected the cell proliferation			significantly larger	dose dependent increase	unchanged	greatly increased					
N#CC(=C(/N)Sc1ccccc1N)/C(C#N)=C(\N)Sc1ccccc1N [U0126]									increased proliferation	could not be rescued	dose dependent inhibition	blocked	inhibited
